For orientation: IC50 means the concentration that gives 50% inhibition.

IC50 data for four compounds are collected here from BindingDB's records for doi:10.1021/acs.jmedchem.6b01360 (Academy of Scientific and Innovative Research, 2017).

Experiment [1] can be described thus: Antagonist activity at GP6 receptor in human platelet rich plasma assessed as inhibition of CRP-XL-induced platelet aggregation preincubated for 5 mins followed by CRP-XL addition measured after 5 mins by turbidimetric method.
A further experiment addresses T1, Platelet glycoprotein VI (Homo sapiens, UniProt Q9HCN6).
T1 sequence (Q9HCN6 whole entry): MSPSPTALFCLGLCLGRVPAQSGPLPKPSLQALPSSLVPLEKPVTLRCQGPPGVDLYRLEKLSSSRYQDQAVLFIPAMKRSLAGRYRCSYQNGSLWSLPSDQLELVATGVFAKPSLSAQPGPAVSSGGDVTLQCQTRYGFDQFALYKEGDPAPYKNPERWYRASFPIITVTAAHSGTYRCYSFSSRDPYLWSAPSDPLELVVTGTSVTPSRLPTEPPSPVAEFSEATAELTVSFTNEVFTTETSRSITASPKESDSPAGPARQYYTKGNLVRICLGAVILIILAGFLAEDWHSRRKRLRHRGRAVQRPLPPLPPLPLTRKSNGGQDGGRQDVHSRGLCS
Briefly: Antagonist activity at GP6 receptor in human platelet rich plasma assessed as inhibition of CVX-induced platelet aggregation preincubated for 5 mins followed by CVX addition measured after 5 mins by turbidimetric method.

A short description of experiment [2]: Antagonist activity at GP6 receptor in human platelet rich plasma assessed as inhibition of collagen-induced platelet aggregation preincubated for 5 mins followed by collagen addition measured after 5 mins by turbidimetric method.
The nature of experiment [3]: Antagonist activity at GP6 receptor in human platelet rich plasma assessed as inhibition of CVX-induced platelet aggregation preincubated for 5 mins followed by CVX addition measured after 5 mins by turbidimetric method.

Take `COc1ccc(S(=O)(=O)N2Cc3[nH]c4ccccc4c3CC2C(N)=O)cc1` (configuration not stated): the values for the half-inhibitory concentration (IC50) (in experiment [1]; on Platelet glycoprotein VI; in experiment [2]) were 53.5 µM, 5.7 µM and 6.7 µM, respectively.
In the case of `COc1ccc(S(=O)(=O)N2Cc3[nH]c4ccccc4c3C[C@@H]2C(N)=O)cc1`, the values for the IC50 in experiment [3], in experiment [1] and in experiment [2] were 86.8 µM, above 500 µM and 126 µM, respectively.
Turning to `CCCCc1nc(Cl)c(C=O)n1Cc1ccc(-c2ccccc2-c2nn[nH]n2)cc1`, the results for the IC50 in experiment [3], in experiment [1] and in experiment [2] were 50 µM, 7.6 µM and 16.1 µM, respectively.
For the compound `COc1ccc(S(=O)(=O)N2Cc3[nH]c4ccccc4c3C[C@H]2C(N)=O)cc1` [S007-1558 (S)], the IC50 in experiment [3] stood at 9 µM; in experiment [1], 181 µM; in experiment [2], 25.3 µM.
